Where “and” joins values, the source holds several entries; their conditions need not be identical. Equal values may be shown once.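 Step 1: Grow cells in 96-well plates. Step 2: Expose to compound for 48 hours at 5 concentrations. Step 3: Interpolate endpoints linearly; if unreached, use highest concentration. Here, GI50 denotes the concentration required for 50% inhibition of growth. At the TGI there is no net growth.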
Key:
Test in all cases: growth of human tumour cells (NCI), 48 h
[1] = tested on: NCI-H23 lung
[2] = tested on: SF-539 CNS
[3] = tested on: HCT-15 colon
[4] = tested on: DLD-1 colon
[5] = tested on: SF-268 CNS
[6] = tested on: LXFL 529 NSCLC
[7] = tested on: OVCAR-4 ovarian
[8] = tested on: OVCAR-5 ovarian
[9] = tested on: CCRF-CEM leukemia
[10] = tested on: T-47D breast

SMILES | TGI [1] | TGI [2] | TGI [3] | TGI [4] | TGI [5] | TGI [6] | TGI [7] | TGI [8] | TGI [9] | GI50 [9] | GI50 [1] | GI50 [10] | TGI [10] | GI50 [2] | GI50 [3] | GI50 [5] | GI50 [7] | GI50 [8]
Cc1cc2cc(Cl)ccc2nc1C(=O)c1ccccc1 | > 100 µM | > 100 µM | > 100 µM | > 100 µM | > 100 µM | > 100 µM | > 100 µM | > 100 µM | – | – | – | – | – | – | – | – | – | –
COc1ccc2c(c1)CCc1cnn(C3OC(COC(C)=O)C(OC(C)=O)C(OC(C)=O)C3OC(C)=O)c1-2 (stereo not given) | > 100 µM | > 100 µM | > 100 µM | > 100 µM | > 100 µM | 41.4 µM | – | > 100 µM | 60.5 µM | – | – | – | – | – | – | – | – | –
Cc1cc(C)nc(NS(=O)(=O)c2ccc(NC(=O)c3cccc4c(Nc5ccc(S(=O)(=O)Nc6nc(C)cc(C)n6)cc5)c5ccccc5nc34)cc2)n1 | 57.3 µM | 32.6 µM | 49 µM | 54.2 µM | 93 µM | 70.3 µM | 64.1 µM | – | 69.6 µM | – | – | – | – | – | – | – | – | –
CN(C)c1ccc(/C=C/C(=O)c2ccccc2)cc1Br | 40 µM | – | 54.7 µM | 35.6 µM | 49.3 µM | 28.8 µM | 34.5 µM | > 100 µM | 62.7 µM | – | – | – | – | – | – | – | – | –
O=C1OC(c2ccccc2)C2CC3CC4(CCC3CN12)OCCO4 (stereo not given) | > 100 µM | > 100 µM | > 100 µM | – | > 100 µM | > 100 µM | > 100 µM | > 100 µM | > 100 µM | – | – | – | – | – | – | – | – | –
COc1ccc(C(=O)/C(=N/Nc2ccccc2)c2ccc(OC)cc2)cc1 | > 100 µM | > 100 µM | > 100 µM | > 100 µM | – | > 100 µM | > 100 µM | > 100 µM | – | – | – | – | – | – | – | – | – | –
O=C(N/N=C/c1coc2ccc(Cl)cc2c1=O)c1ccncc1 | > 100 µM | > 100 µM | > 100 µM | – | > 100 µM | – | > 100 µM | > 100 µM | > 100 µM | 28.1 µM | 38.8 µM | > 100 µM | > 100 µM | 75900 nM | 44400 nM | 89.7 µM | > 100000 nM | > 100000 nM
CCOCCc1c(O)nc(SC)[nH]c1=O | > 100 µM | > 100 µM | > 100 µM | – | > 100 µM | – | > 100 µM | > 100 µM | > 100 µM | > 100 µM | > 100 µM | > 100 µM | > 100 µM | > 100000 nM | > 100000 nM | > 100 µM | > 100000 nM | > 100000 nM
[N-]=[N+]=Nc1ccccc1-[n+]1noc([O-])c1Br | > 100 µM | > 100 µM | > 100 µM | > 100 µM | > 100 µM | > 100 µM | > 100 µM | – | > 100 µM | – | – | – | – | – | – | – | – | –
O=C(O)c1cc(N/C=C2\C(=O)c3ccccc3OC2O)ccc1O (stereo not given) | 59.6 µg/mL | 43.9 µg/mL | 44.7 µg/mL | – | 108 µg/mL | – | > 150 µg/mL | 74.9 µg/mL | 44.2 µg/mL | 9.75 µg/mL | 20.4 µg/mL | 5.34 µg/mL | 46.2 µg/mL | 16.7 µg/mL | 15.7 µg/mL | 24 µg/mL | 29 µg/mL | 29.3 µg/mL
O=C(/C=C/C=C/c1ccccc1)c1ccc(Nc2nc(Nc3ccccc3)nc(Nc3ccccc3)n2)cc1 | > 100 µM | > 100 µM | > 100 µM | – | > 100 µM | – | > 100 µM | > 100 µM | > 100 µM | 19.4 µM | > 100 µM | 4.58 µM | > 100 µM | 61600 nM | > 100000 nM | 97 µM | 88100 nM | > 100000 nM
CS(=O)(=O)N1CCN(Cc2cc3nc(-c4cccc5[nH]ncc45)nc(N4CCOCC4)c3s2)CC1 | > 100 µM | – | > 100 µM | – | > 100 µM | – | > 100 µM | > 100 µM | > 100 µM | 2.3 µM and 0.909 µM | 1.37 µM and 0.603 µM | 0.0668 µM and 0.035 µM | 0.505 µM | 444 nM and 268 nM | 721 nM and 453 nM | 1.59 µM and 0.625 µM | 2770 nM and 894 nM | 357 nM and 234 nM
O=C(O)CN(CC(=O)O)Cc1cc2c(cc1O)Oc1cc(O)c(CN(CC(=O)O)CC(=O)O)cc1C21OC(=O)c2ccccc21 | > 100 µM | > 100 µM | > 100 µM | – | > 100 µM | – | > 100 µM | > 100 µM | > 100 µM | – | – | – | > 100 µM | – | – | – | – | –
O=c1oc2c3ccc4ccccc4c3n(CCN3CCOCC3)c2c2ccccc12 | – | > 100 µM | – | > 100 µM | > 100 µM | > 100 µM | > 100 µM | – | 15.2 µM | – | – | – | – | – | – | – | – | –
CN(CCCCCl)P(=O)(OCc1ccc([N+](=O)[O-])o1)C(F)(F)c1ccc(CC(=O)N[C@@H](CC(=O)O)C(=O)N[C@@H](Cc2ccc(C(F)(F)P(=O)(OCc3ccc([N+](=O)[O-])o3)N(C)CCCCCl)cc2)C(N)=O)cc1 (stereo not given in full) | > 100 µM | 99.8 µM | > 100 µM | – | > 100 µM | – | > 100 µM | > 100 µM | > 100 µM | 30.2 µM | 51.7 µM | 39.1 µM | > 100 µM | 31000 nM | > 100000 nM | 42.9 µM | 39100 nM | > 100000 nM
Nc1ncnc2c1c(-c1cccc(OCc3ccccc3)c1)cn2C1CC(CN2CCCC2)C1 (stereo not given) | 16 µM | 3.02 µM | 5.94 µM | – | 4.61 µM | – | 6.59 µM | 6.82 µM | 6.66 µM | 2.51 µM | 2.91 µM | 2.04 µM | 6.59 µM | 1600 nM | 1470 nM | 1.94 µM | 1860 nM | 705 nM
Fc1ccc(CNc2c3ccccc3nc3ccccc23)cc1 | 8.57 µM | 5.7 µM | 5.31 µM | – | 9.49 µM | – | 7.34 µM | 9.25 µM | > 100 µM | 3.12 µM | 2.36 µM | 2.53 µM | 10 µM | 2220 nM | 1980 nM | 2.74 µM | 2050 nM | 2410 nM
CC1(C)CC(=O)C(C(c2cccc(O)c2O)C2C(=O)CC(C)(C)CC2=O)C(=O)C1 | > 100 µM | > 100 µM | > 100 µM | – | > 100 µM | – | > 100 µM | > 100 µM | > 100 µM | – | – | – | > 100 µM | – | – | – | – | –
Cn1cc(C2=C(c3c4n(c5ccccc35)CC(CN)C4)C(=O)NC2=O)c2ccccc21 (stereo not given) | 11.1 µM | 6.24 µM | 15.8 µM | – | 9.57 µM | – | 10.6 µM | 22.1 µM | 25 µM | 4.82 µM | 4.38 µM | 5.26 µM | 13.5 µM | 2990 nM | 4330 nM | 3.94 µM | 2330 nM | 7160 nM

From PubChem BioAssay (NCI)
